{
  "source": "paper PMC9917443",
  "about": "(eLife, 2023)",
  "key": {"[1]": {"tested_on": "GBR-activated K^+ currents in cultured hippocampal neurons", "experiment": "K^+ currents in cultured hippocampal neurons (patch-clamp)", "assay_type": "cell-based, mouse", "experimental": "APP17 signaling through native GBRs may depend on protein-protein interactions that are not preserved in the membrane preparations used for the [^35S]GTPγS binding assay. Therefore, we tested whether APP17 influences GBR-mediated Gβγ signaling to K^+ channels in cultured hippocampal neurons using patch-clamp electrophysiology, which preserves the native environment of receptors ([Schuler et al., 2001]; [Vigot et al., 2006]). […] . Neuronal cultures and HEK293T cells were prepared as described ([Dinamarca et al., 2019]). Coverslips with hippocampal neurons (DIV 12–15) or HEK293T cells were transferred to a chamber containing a low-K^+ bath solution (in mM): 145 NaCl, 4 KCl, 5 HEPES, 5.5 D-glucose, 1 MgCl2, and 1.8 CaCl2 (pH 7.4 adjusted with NaOH). Recordings were performed at room temperature using borosilicate pipettes of 3–5 MΩ resistance tips, filled with K-gluconate-based pipette solution (in mM): 150 K-gluconate, 1.1 EGTA, 10 HEPES, 10 Tris-phosphocreatine, 0.3 NaGTP, and 4 MgATP (pH 7.2 adjusted with KOH). Upon achieving whole-cell access, cells were held in voltage-clamp mode at −70 mV (with no correction for liquid junction potential) and baclofen-induced K^+ currents were induced in a high-K^+ bath solution (in mM): 120 NaCl, 25 KCl, 5 HEPES, 5.5 D-glucose, 1 MgCl2, and 1.8 CaCl2 (pH 7.4 adjusted with NaOH). […] Schaffer collaterals were stimulated at 0.1 Hz with brief current pulses via bipolar Pt/Ir wires. Evoked EPSCs were recorded at –60 mV with a Cs^+-based intracellular solution. Baclofen and peptides were bath applied in standard ACSF at room temperature. We recorded mEPSCs in primary neuronal cultures established from embryonic (E15–17) murine hippocampus at DIV13–16 in the presence of 0.5 μM TTX at room temperature ([Dinamarca et al., 2019]). APP17 (250 nM) and (R)-baclofen (30 μM) were applied via superfusion. Template matching with pClamp 10 software (Molecular Devices) was used to detect individual mEPSCs."}, "[2]": {"tested_on": "GB1a/2 receptor-induced Kir3 currents in HEK293T cells", "experiment": "Kir3 K^+ currents in transfected HEK293T cells (patch-clamp)", "assay_type": "cell-based"}, "[3]": {"tested_on": "eEPSCs of CA1 pyramidal neurons", "experiment": "eEPSC amplitudes in CA1 pyramidal neurons of acute hippocampal slices", "parameters": "species or system mouse", "settings": "APP17 250 nM or baclofen 20 µM, Cs^+-based intracellular solution", "experimental": "GB1a/2 receptors are abundant at axon terminals where they inhibit neurotransmitter release ([Vigot et al., 2006]). […] A GBR antagonist blocked the effect of APP17 on the mEPSC frequency, supporting a GBR-dependent mechanism. […] We additionally studied whether APP17 at 250 nM influences eEPSC amplitudes in acute hippocampal slices. Postsynaptic GBR-activated K^+ currents were blocked with a Cs^+-based intracellular solution, which allowed to specifically monitor the activity of presynaptic GBRs.\nNeuronal cultures and HEK293T cells were prepared as described ([Dinamarca et al., 2019]). Coverslips with hippocampal neurons (DIV 12–15) or HEK293T cells were transferred to a chamber containing a low-K^+ bath solution (in mM): 145 NaCl, 4 KCl, 5 HEPES, 5.5 D-glucose, 1 MgCl2, and 1.8 CaCl2 (pH 7.4 adjusted with NaOH). Recordings were performed at room temperature using borosilicate pipettes of 3–5 MΩ resistance tips, filled with K-gluconate-based pipette solution (in mM): 150 K-gluconate, 1.1 EGTA, 10 HEPES, 10 Tris-phosphocreatine, 0.3 NaGTP, and 4 MgATP (pH 7.2 adjusted with KOH). […] Evoked EPSCs were recorded at –60 mV with a Cs^+-based intracellular solution. […] We recorded mEPSCs in primary neuronal cultures established from embryonic (E15–17) murine hippocampus at DIV13–16 in the presence of 0.5 μM TTX at room temperature ([Dinamarca et al., 2019]). […]"}, "[4]": {"tested_on": "native GBRs in mouse brain membranes", "experiment": "[^35S]GTPγS binding in brain membrane preparations"}, "[5]": {"tested_on": "spontaneous neuronal activity in the auditory cortex", "experiment": "two-photon Ca^2+ imaging of auditory cortex in anesthetized mice", "settings": "5 µM perfused over cortex; peptides 60 min, baclofen 15 min"}, "[6]": {"target": "GB1a/2 receptors (Homo sapiens, UniProt O75899+Q9UBS5)", "sequence (Q9UBS5 15-961 limits assumed)": "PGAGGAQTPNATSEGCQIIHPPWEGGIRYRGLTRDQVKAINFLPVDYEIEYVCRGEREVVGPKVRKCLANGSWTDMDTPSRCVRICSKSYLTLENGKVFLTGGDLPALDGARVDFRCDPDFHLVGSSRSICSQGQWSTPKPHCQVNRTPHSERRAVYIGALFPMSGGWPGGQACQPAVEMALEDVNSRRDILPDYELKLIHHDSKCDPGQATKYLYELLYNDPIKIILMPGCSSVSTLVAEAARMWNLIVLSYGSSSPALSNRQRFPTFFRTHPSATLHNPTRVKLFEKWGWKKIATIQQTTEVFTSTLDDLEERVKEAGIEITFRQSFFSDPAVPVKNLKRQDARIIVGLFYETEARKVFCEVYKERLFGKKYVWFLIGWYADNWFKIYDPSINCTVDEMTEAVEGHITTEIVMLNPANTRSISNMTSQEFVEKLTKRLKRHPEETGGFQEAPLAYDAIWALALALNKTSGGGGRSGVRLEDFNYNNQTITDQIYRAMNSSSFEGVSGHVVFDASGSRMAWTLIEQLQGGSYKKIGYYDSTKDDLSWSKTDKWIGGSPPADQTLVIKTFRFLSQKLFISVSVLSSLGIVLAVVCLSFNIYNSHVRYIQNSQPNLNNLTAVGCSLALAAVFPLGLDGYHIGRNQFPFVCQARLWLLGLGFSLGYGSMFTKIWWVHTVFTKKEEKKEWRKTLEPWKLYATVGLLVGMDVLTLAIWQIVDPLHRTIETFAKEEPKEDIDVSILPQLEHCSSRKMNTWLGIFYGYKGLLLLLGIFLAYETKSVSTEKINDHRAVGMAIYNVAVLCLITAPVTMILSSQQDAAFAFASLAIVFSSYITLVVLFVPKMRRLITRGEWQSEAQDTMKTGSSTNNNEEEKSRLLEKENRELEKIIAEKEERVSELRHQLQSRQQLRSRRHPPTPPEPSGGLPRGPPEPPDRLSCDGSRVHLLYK", "sequence (O75899 42-941 partner)": "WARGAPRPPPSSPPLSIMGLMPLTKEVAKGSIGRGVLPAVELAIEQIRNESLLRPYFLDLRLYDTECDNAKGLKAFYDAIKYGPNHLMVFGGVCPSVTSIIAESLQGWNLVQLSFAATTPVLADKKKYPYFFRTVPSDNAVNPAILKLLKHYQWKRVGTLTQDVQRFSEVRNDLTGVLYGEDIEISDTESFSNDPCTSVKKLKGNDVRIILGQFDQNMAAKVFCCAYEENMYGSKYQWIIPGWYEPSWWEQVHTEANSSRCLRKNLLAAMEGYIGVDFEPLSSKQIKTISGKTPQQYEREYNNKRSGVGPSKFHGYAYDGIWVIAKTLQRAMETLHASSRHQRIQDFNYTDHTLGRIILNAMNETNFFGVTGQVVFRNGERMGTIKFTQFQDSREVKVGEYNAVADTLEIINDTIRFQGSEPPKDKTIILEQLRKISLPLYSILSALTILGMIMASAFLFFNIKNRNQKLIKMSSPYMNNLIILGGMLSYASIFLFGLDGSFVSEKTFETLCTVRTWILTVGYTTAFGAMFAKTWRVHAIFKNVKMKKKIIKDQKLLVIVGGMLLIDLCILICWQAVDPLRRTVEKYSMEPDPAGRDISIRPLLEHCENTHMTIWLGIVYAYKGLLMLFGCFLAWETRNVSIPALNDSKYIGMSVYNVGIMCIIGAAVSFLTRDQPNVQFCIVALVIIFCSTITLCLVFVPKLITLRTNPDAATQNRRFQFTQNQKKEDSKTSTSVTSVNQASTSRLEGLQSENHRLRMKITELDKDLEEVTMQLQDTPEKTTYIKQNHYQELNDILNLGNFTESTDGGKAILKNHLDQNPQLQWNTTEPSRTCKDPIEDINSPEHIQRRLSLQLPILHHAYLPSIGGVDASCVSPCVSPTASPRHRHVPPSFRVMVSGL", "experiment": "Ca^2+ mobilization assay (Calcium 6) in HEK293T cells expressing GB1a/2", "assay_type": "cell-based", "parameters": "Flag (N); expressed in transfected cells; host or cells: HEK293T cells stably expressing chimeric Gαqi", "settings": "1 or 10 μM"}},
  "data": [
    {"substance": "Ac-DDSDVWWGGADTDYADG-NH2 [APP17]", "values": [
      {"measurement": "K+ current", "setting": "[1]; 5 µM APP17, column graph (left), single values", "result": -1.055},
      {"measurement": "baclofen-induced K^+ currents in presence of peptide (in words)", "setting": "[1]; 5 µM peptide + 5 µM baclofen", "result": "elicited currents of similar amplitudes as baclofen alone"},
      {"measurement": "K^+ currents evoked by compound alone (in words)", "setting": "[1]; 5 µM, -70 mV", "result": "did not elicit any currents"},
      {"measurement": "GABA-induced Kir3 currents in presence of peptide (in words)", "setting": "[2]; 5 µM GABA", "result": "nor did the peptides alter K^+ currents in the presence of 5 µM GABA"},
      {"measurement": "Kir3 K^+ currents evoked by compound alone (in words)", "setting": "[2]; transfected HEK293T cells", "result": "did not trigger K^+ currents"},
      {"measurement": "eEPSC amplitude (in words)", "setting": "[3]", "result": "not APP17 was able to reduce the amplitudes of eEPSCs"},
      {"measurement": "effect on GABA dose-response in [^35S]GTPγS binding (in words)", "setting": "[4]; 1 μM APP17", "result": "did not significantly differ from each other and exhibited similar EC50 and Emax values"},
      {"measurement": "EMax of GABA in presence of peptide", "setting": "[4]; APP17 1 μM, n=8", "result": 1.39},
      {"measurement": "EC50 of GABA in presence of peptide", "setting": "[4]; APP17 1 μM, n=8, pH 7.7, 30 μM GDP, 0.2 nM [^35S]GTPγS", "result": 16.37, "unit": "µM"},
      {"measurement": "Basal", "setting": "[4]; GABA curve fit, APP17 1 μM, n=8", "result": 0.98},
      {"measurement": "spontaneous Ca^2+ transients (in words)", "setting": "[5]", "result": "no significant effect compared to ACSF"},
      {"measurement": "intracellular Ca^2+ mobilization (in words)", "setting": "[6]", "result": "did not induce significant Ca^2+ mobilization"}
    ]}
  ]
}
